Where two headings read alike, the source gives them in different places.
Key:
[1] = test system: dimethylnitrosamine-induced hepatic fibrosis; test: Dimethylnitrosamine-induced severe liver fibrosis in rats (Example 1); assay type: in vivo
Protocol: The experimental method was as follows. Male Sprague-Dawley rats were divided into four groups. Two groups were injected intraperitoneally with 1% dimethylnitrosamine in saline for three consecutive days per week for 3 weeks, at a dose of 1 ml/kg body weight. This dosage regimen will induce severe liver fibrosis. The other two groups of rats, control rats, were injected with saline. One group of dimethylnitrosamine-treated rats and one control group were fed Halofuginone in the diet at a dose of 5 mg/kg weight of diet, starting three days before the dimethylnitrosamine injections were administered. At the end of the experimental period, the rats were sacrificed and the liver was removed and weighed.
(§1) Liver samples were taken for histological examination. Briefly, the tissue samples were collected into phosphate-buffered saline (PBS) and fixed overnight in 4% paraformaldehyde in PBS at 4° C. Serial 5 μm sections were prepared after the samples had been dehydrated in graded ethanol solutions, cleared in chloroform and embedded in Paraplast. Differential staining of collagenous and non-collagenous proteins was performed with 0.1% Sirius red and 0.1% fast green as a counter-stain in picric acid. This procedure stains collagen red [Gascon-Barre, M., et al., J. Histochem. Cytochem., 37:377-381, 1989].
Liver samples were then hybridized with a probe for rat collagen α1(I) expression. For hybridization with the genetic probe, the sections were deparafinized in xylene, rehydrated through a graded series of ethanol solutions, rinsed in distilled water for 5 minutes and then incubated in 2×SSC at 70° C. for 30 minutes. The sections were then rinsed in distilled water and treated with pronase, 0.125 mg/ml in 50 mM Tris-HCl, 5 mM EDTA, pH 7.5, for 10 minutes. After digestion, the slides were rinsed with distilled water, post-fixed in 10% formalin in PBS and blocked in 0.2% glycine. After blocking, the slides were rinsed in distilled water, rapidly dehydrated through graded ethanol solutions and air-dried for several hours. Before hybridization, the 1600 bp rat collagen α1(I) insert was cut out from the original plasmid, pUC18, and inserted into the pSafyre plasmid. The sections were then hybridized with this probe after digoxigenin-labeling [M. Pines et al., Matrix Biology, 14:765-71, 1996].

[2] = test system: mild dimethylnitrosamine-induced fibrosis; test: Mild dimethylnitrosamine-induced fibrosis in rat liver (Example 2); assay type: in vivo; settings: 4 weeks
Protocol: The specific experimental method used was similar to that of Example 1, except that the dimethylnitrosamine-treated rats were only given 0.25% dimethylnitrosamine in saline, a much lower dose than that given in Example 1 above. Also, the duration of treatment was longer before the rats were sacrificed: 4 weeks as opposed to 3 weeks in Example 1.
The expression of the collagen α1(I) gene was measured as described in Example 1 above. For hydroxyproline analysis, liver samples were hydrolyzed for 22 hours at 110° C. with 6 N HCl. Nitrogen was determined after Kjeldahl digestion by the spectrophotometric procedure using an autoanalyzer as described by Krom [M. D. Krom, Analyst, 105:305-16, 1980]. The collagen-unique amino acid hydroxyproline from the same hydrolysate was determined by amino acid analysis (Biotronik LC 5000, Germany) after post-column derivatization on a cation exchange column (BTC 2710, Biotronik). The results are expressed as the percentage of collagen in total liver proteins.

[3] = test system: bile duct ligation-induced fibrosis; assay type: in vivo, rat
Description: In addition to dimethylnitrosamine-induced liver fibrosis, a second model of liver fibrosis in rats is available. […] Tox., 15:449-453, 1995]. Thus, the particular advantage of the bile duct ligation model is that any protective treatments must directly protect the liver from the pathological changes induced by fibrosis, rather than indirectly altering the effects of the exogeneous substance which is used to cause liver fibrosis in the animal model. The experimental method was as follows.
Male Wistar rats, weighing 200-250 g, were divided into four experimental groups with 3 rats in each group. […] It should be noted that all animals in the first two groups underwent sham operations which included all steps of the actual surgical procedure, with the exception of the bile duct ligation itself. The third group had bile duct ligation surgery and was not given Halofuginone. The fourth group had bile duct ligation surgery and was given Halofuginone. The actual surgical procedure was essentially similar to that reported in the literature [Kountaras, J. et al., Br. J. Exp. Pathol., 65:305-311, 1984].
All animals were given drinking water ad libitum. Rats which were given Halofuginone were fed Halofuginone in the normal rat diet at a concentration of 5 mg per kg diet weight for one week before surgery and for the duration of the experimental period, which was either 3 or 7 days after the surgical operation. Rats were sacrificed at the end of the experimental period. Both collagen content (through Sirius red staining) and collagen α1(I) gene expression were measured as described above in Example 1. In addition, serum alkaline phosphatase, alanine aminotransferase and aspartate aminotransferase levels were measured […] by a Hitachi Auto-analyzer System of Boerringher-Mannheim.

[4] = test system: TAA-induced liver cirrhosis; assay type: in vivo, rat
Protocol: (§2) Male Sprague-Dawley rats were divided into three groups. Two groups were injected intraperitoneally with TAA twice weekly for 12 weeks, at a dose of 200 mg/kg body (Muller, A. et al., Exp. Pathol., 34:229-236, 1988; Hori, N. et al., Dig. Dis. Sci., 38:2195-2202, 1993). […] The other group of rats, control rats, was injected with saline. One group of TAA-treated rats and one control group were fed Halofuginone in the diet at a dose of 5 ppm.
For this experiment, rats in group 1 received only Halofuginone (n=4); rats in group 2 received TAA alone without Halofuginone (n=6); and rats in group 3 received TAA with Halofuginone (n=6). Groups 1and 3 received Halofuginone starting three days before the TAA injections were administered. At the end of the experimental period, the rats were sacrificed and the liver was removed and weighed.
as §1
In addition, the livers were scored in a double-blind evaluation, on a scale of 0-4, for the appearance of fibrotic tissue.

[5] = test system: TAA-induced liver cirrhosis; test: Treatment of existing TAA-induced liver cirrhosis in rats (Example 4); assay type: in vivo, rat
Protocol: as §2, §1
In addition, the livers were scored in a double-blind evaluation, on a scale of 0-4, for the appearance of fibrotic tissue. […]

stellate cells [6] = test: Smooth muscle actin in stellate cells, TAA prevention experiment (Example 5); assay type: in vivo, rat; settings: prophylactic administration of Halofuginone with TAA
Description: (§3) Liver cirrhosis was induced with TAA as previously described. […] These cells are located in the subendothelial space, between the apical membrane of hepatocytes and the ablumenal side of the sinusoidal endothelial cells. The intimate association between the stellate cells and the neighboring cell types facilitates intercellular transport and paracrine stimulation by soluble mediators. In injured liver, these cells acquire features of myofibroblasts and express smooth muscle cytoskeletal markers such as smooth muscle actin. […] The experimental method was as follows.
(§4) Rats were treated with TAA alone or TAA with Halofuginone as previously described in Example 4 for the use of Halofuginone as both a prophylactic treatment and a treatment for existing liver cirrhosis. Tissue samples were also prepared as previously described, except that rather than undergoing staining for collagen, the samples were incubated with smooth muscle actin antibodies in a 1:1000 dilution, with detection performed by the Histomouse SP kit according to the instructions of the manufacturer (Zymed Laboratories Inc., San Francisco, Calif., USA).

stellate cells [7] = test: Smooth muscle actin in stellate cells, TAA treatment experiment (Example 5); assay type: in vivo, rat; settings: Halofuginone administered after induction of liver cirrhosis by TAA
Description: as §3, §4

collagen type I = settings: as demonstrated in U.S. Pat. No. 5,449,678; cited from earlier work
[8] = bile duct ligated rats fed Halofuginone vs bile duct ligation only
[9] = bile duct ligated rats, Halofuginone 5 mg per kg diet

## O=C(CC1NCCC[C@H]1O)Cn1cnc2cc(Br)c(Cl)cc2c1=O (some centres unmarked) [Halofuginone]
[1]; Halofuginone alone, 5 mg/kg diet, all six rats survived
  toxicity (survival): no toxicity
[1]; rat, in vivo
  liver weight: 11 ± 1.5 g
[1]; rats given 1% dimethylnitrosamine i.p. and Halofuginone 5 mg/kg diet, 3 weeks, compared to dimethylnitrosamine alone
  expression of collagen α1(I) gene in liver (in situ hybridization): marked reduction
[1]; rats given both Halofuginone and dimethylnitrosamine, dimethylnitrosamine alone 4.5 g and 5.0 g
  liver weight: 8.5 ± 1.7 g
[1]; rats given both dimethylnitrosamine and Halofuginone 5 mg/kg diet
  thickening of collagen bundles in liver (Sirius red staining): markedly reduced
[1]; rats given both dimethylnitrosamine and Halofuginone, four of six died with dimethylnitrosamine alone
  rats died by the end of three weeks: one of the six
[2]; 0.25% dimethylnitrosamine plus Halofuginone
  increased collagen α1(I) gene expression in liver: abolished
[2]; 0.25% dimethylnitrosamine, Halofuginone in diet
  dimethylnitrosamine-induced increase in liver hydroxyproline concentration: completely inhibited
[3]; [8]
  bile duct ligation-induced increase in collagen synthesis: significantly reduced
  bile duct ligation-induced increase in collagen α1(I) gene expression: significantly reduced
[3]; [9]
  serum alanine aminotransferase, higher in rats not given Halofuginone than in rats fed Halofuginone: 56%
  serum alkaline phosphatase in rats not given Halofuginone relative to rats fed Halofuginone: 257%
  serum aspartate aminotransferase, higher in rats not given Halofuginone than in rats fed Halofuginone: 15%
[4]; Halofuginone plus TAA vs TAA alone (prevention)
  reduction of fibrotic scores for liver: 43%
[4]; rat, in vivo
  effect on body weight: no effect
  effect on spleen weight: no effect
[4]; rats given both TAA (200 mg/kg i.p. twice weekly, 12 weeks) and Halofuginone 5 ppm in diet from three days before TAA
  thickening of collagen bundles in liver (Sirius red staining): markedly reduced
[4]; scale of 0-4, rats given both Halofuginone and TAA (prevention), TAA alone 2.16±0.7
  average double-blind liver fibrosis score: 1.25±0.8
[5]; Halofuginone given for four weeks after twelve weeks of TAA
  thickening of collagen bundles in liver (Sirius red staining): markedly reduced
[5]; scale of 0-4, group 3, Halofuginone after twelve weeks TAA, TAA alone 2.16±0.7 (group 1) or 3.06±1.7 (group 2)
  average double-blind liver fibrosis score: 1.18±1.6
Stellate cells [6]
  pathological expression of smooth muscle actin by stellate cells: prevented
Stellate cells [7]
  pathological expression of smooth muscle actin by stellate cells: significantly reduced
Collagen type I
  synthesis of collagen type I in bone chondrocytes in vitro: inhibits

Source: patent US6562829B1, “Treatment of hepatic cirrhosis” (Hadasit Medical Research Services & Development Co., Ltd., priority 1997, dated 2003)
